The text below walks through data of patent US20200407370A1, “PEPTIDYLARGININE DEIMINASE INHIBITOR AND USE THEREOF” (Nanjing Transthera Biosciences Co., Ltd., priority 2018, published 2020).

Assay type in all cases: in vitro ADME
A short description of data set [1]: Liver microsomal stability in human. Conditions: human liver microsomes, 0.5 mg protein/mL, 1 μM compound, 37° C. How it is done:
(§1) Experimental Example 2: Evaluation on Liver Microsomal Stability of the Compound Disclosed Herein in Human/Canine
(§2) An appropriate amount of the compound was precisely weighed and dissolved in DMSO to prepare a 5.0 mM stock solution. 5.0 mM stock solution was diluted to 1.0 mM with DMSO, and then diluted with water to 10 μM, serving as a compound working solution for later use (DMSO content in the reaction system: 0.1% v/v).
(§3) • (1) The liver microsomes (20 mg protein/mL) were taken from a −80° C. refrigerator, pre-incubated on a 37° C. water bath thermostatic oscillator for 3 min, and thawed for use. • (2) A mixed incubation system solution (without compounds or β-NADPH) was prepared according to the proportion of “composition of the incubation system” described above and pre-incubated on a 37° C. water bath thermostatic oscillator for 2 min. • (3) Control group (without β-NADPH): 30 μL of water and 30 μL of compound working solution (10 μM) were added to 240 μL of the mixed incubation system solution in step (2), and the mixture was vortexed for 30 s and mixed. The total volume of the mixture was 300 μL. The sample was duplicated. The reaction solution was placed on a 37° C. water bath thermostatic oscillator for incubation, and timing was started. Samples were collected at 0 min and 60 min. • (4) Sample group: 70 μL of β-NADPH solution (10 mM) and 70 μL of compound working solution (10 μM) were added to 560 μL of the mixed incubation system solution in step (2), and the total volume of the mixture was 700 μL. The mixture was vortexed for 30 s and mixed. The sample was duplicated. The reaction solution was placed on a 37° C. water bath thermostatic oscillator for incubation, and timing was started. Samples were collected at 0 min, 5 min, 10 min, 20 min, 30 min and 60 min after timing. • (5) The reaction solution was vortexed for 3 min, and centrifuged at 12,000 rpm for 5 min. • (6) 50 μL of the supernatant was added to 150 μL of water, and the resulting solution was vortexed and mixed before LC/MS/MS analysis.
(§4) The half-life (t1/2) and clearance (Cl) were calculated using the following first-order kinetic formula:
(§5) Vd=1/protein content in liver microsomes
(§6) Note: k denotes the slope of the logarithm of the remaining amount of a compound vs. time, Vd denotes apparent volume of distribution, C0 denotes drug concentration at 0 h, Ct denotes drug concentration at time t, t denotes time, e denotes natural number, and Clint denotes intrinsic clearance.
Background: Liver microsomes are a subcellular fraction often used to study metabolism.

Data set [2] is described as follows: Liver microsomal stability in rat. As to conditions: rat liver microsomes, 0.5 mg protein/mL, 1 μM compound, 37° C. How it is done:
(§7) Experimental Example 4:Evaluation on Liver Microsomal Stability of the Compound Disclosed Herein in Mouse/Rat
(§8) Objective: To evaluate the liver microsomal stability of the compound disclosed herein in mouse/rat
as §2
(§9) An appropriate amount of the compound was precisely weighed and dissolved in methanol to prepare a 5.0 mM stock solution. 5.0 mM stock solution was diluted to 1.0 mM with methanol, and then diluted with 10% methanol-water (v/v) solution to 10 μM, serving as a compound working solution for later use (methanol content in the reaction system: 1.1% v/v).
(§10) • (1) The liver microsomes (20 mg protein/mL) were taken from a −80° C. refrigerator, pre-incubated on a 37° C. water bath thermostatic oscillator for 3 min, and thawed for use. • (2) A mixed incubation system solution (without compounds or […]) was prepared according to the proportion of “composition of the incubation system” described above and pre-incubated on a 37° C. water bath thermostatic oscillator for 2 min. • (3) Control group (without β-NADPH): 30 μL of water and 30 μL of compound working solution (10 μM) were added to 240 μL of the mixed incubation system solution in step (2), and the mixture was vortexed for 30 s and mixed. The total volume of the mixture was 300 μL. The sample was duplicated. The reaction solution was placed on a 37° C. water bath thermostatic oscillator for incubation, and timing was started. Samples were collected at 0 min and 60 min. • (4) Sample group: 70 μL of β-NADPH solution (10 mM) and 70 μL of compound working solution (10 μM) were added to 560 μL of the mixed incubation system solution in step (2), and the total volume of the mixture was 700 μL. The mixture was vortexed for 30 s and mixed. The sample was duplicated. The reaction solution was placed on a 37° C. water bath thermostatic oscillator for incubation, and timing was started. Samples were collected at 0 min, 5 min, 10 min, 20 min, 30 min and 60 min after timing. • (5) The reaction solution was vortexed for 3 min, and centrifuged at 12,000 rpm for 5 min. • (6) 50 μL of the supernatant was added to 150 μL of water, and the resulting solution was vortexed and mixed before LC/MS/MS analysis.
as §4, §5, §6

Data set [3] in a line: Liver microsomal stability in canine. As to conditions: dog; canine liver microsomes, 0.5 mg protein/mL, 1 μM compound, 37° C. As to the method: as §1, §2, §3, §4, §5, §6
Data set [4] can be described thus: Liver microsomal stability in mouse. Conditions: mouse liver microsomes, 0.5 mg protein/mL, 1 μM compound, 37° C. How it is done:
as §7, §8, §2, §9, §10, §4, §5, §6

Turning to `CCn1c(-c2nc3cc(C(=O)N4CCC[C@@H](N)C4)cc(OC)c3n2C)cc2ccsc21` [Compound 3, (R)-(3-aminopiperidin-1-yl)(2-(6-ethyl-6H-thieno[2,3-b]pyrrol-5-yl)-7-methoxy-1-methyl-1H-benzo[d]imidazol-5-yl)methanone], the figures for the half-life at 1 μM in data set [1] and in data set [2] were 277 min and 239 min, respectively. For the same molecule, the microsomal CLint (as a rule, the capacity of the preparation to metabolise the compound, expressed as a volume cleared per time) at 1 μM in data set [1] was found to be 5 µL/min/mg; in data set [2] it was 5.8 µL/min/mg.

Regarding `CCn1c(-c2nc3cc(C(=O)N4CCC[C@@H](N)C4)cc(OC)c3n2C)cc2cc(C)sc21` [Compound 9, (R)-(3-aminopiperidin-1-yl)(2-(6-ethyl-2-methyl-6H-thieno[2,3-b]pyrrol-5-yl)-7-methoxy-1-methyl-1H-benzo[d]imidazol-5-yl)methanone], in data set [3], the half-life (as a rule, how long it takes for the measured level to halve) at 1 μM was 1390 min and the microsomal CLint at 1 μM turned out to be 1 µL/min/mg. Also, the t1/2 entry in data set [2] is recorded as “→∞”.

For `COc1cc(C(=O)N2CCC[C@@H](N)C2)cc2nc(-c3cc4ccsc4n3CC3CC3)n(C)c12` [Compound 18, (R)-(3-aminopiperidin-1-yl)(2-(6-(cyclopropylmethyl)-6H-thieno[2,3-b]pyrrol-5-yl)-7-methoxy-1-methyl-1H-benzo[d]imidazol-5-yl)methanone], in data set [4], the half-life at 1 μM was 248 min and the microsomal CLint at 1 μM came to 5.6 µL/min/mg. Further, in data set [1], the half-life at 1 μM amounted to 210 min and the microsomal CLint at 1 μM was determined as 6.6 µL/min/mg.

As for `COc1cc(C(=O)N2CCC[C@@H](N)C2)cc2nc(-c3cc4ccsc4n3CC(C)C)n(C)c12` [Compound 20, (R)-(3-aminopiperidin-1-yl)(2-(6-isobutyl-6H-thieno[2,3-b]pyrrol-5-yl)-7-methoxy-1-methyl-1H-benzo[d]imidazol-5-yl)methanone], the values for the half-life at 1 μM in data set [4] and in data set [2] were 693 min and 315 min, respectively. Also, the intrinsic clearance (microsomal CLint) at 1 μM in data set [4] was 2 µL/min/mg; in data set [2] it was 4.4 µL/min/mg.

For `COc1cc(C(=O)N2CCC[C@@H](N)C2)cc2nc(-c3cc4ccsc4n3CC(F)(F)F)n(C)c12` [Compound 21, (R)-(3-aminopiperidin-1-yl)(7-methoxy-1-methyl-2-(6-(2,2,2-trifluoroethyl)-6H-thieno[2,3-b]pyrrol-5-yl)-1H-benzo[d]imidazol-5-yl)methanone], in data set [2], the half-life at 1 μM turned out to be 178 min and the intrinsic clearance (microsomal CLint) at 1 μM stood at 7.8 µL/min/mg.

For the molecule `COc1cc(C(=O)N2CCC[C@@H](N)C2)cc2nc(-c3cc4ccsc4n3CC3CCC3)n(C)c12` [Compound 22, (R)-(3-aminopiperidin-1-yl)(2-(6-(cyclobutylmethyl)-6H-thieno[2,3-b]pyrrol-5-yl)-7-methoxy-1-methyl-1H-benzo[d]imidazol-5-yl)methanone], in data set [4], the half-life at 1 μM stood at 161 min and the intrinsic metabolic clearance (microsomal CLint) at 1 μM was determined as 8.6 µL/min/mg.

In data set [4], `COc1cc(C(=O)N2CCC[C@@H](N)C2)cc2nc(-c3cc4cc(C)sc4n3CC3CC3)n(C)c12` [Compound 23, (R)-(3-aminopiperidin-1-yl)(2-(6-(cyclopropylmethyl)-2-methyl-6H-thieno[2,3-b]pyrrol-5-yl)-7-methoxy-1-methyl-1H-benzo[d]imidazol-5-yl)methanone] displayed a half-life at 1 μM of 239 min and a microsomal CLint at 1 μM of 5.8 µL/min/mg.
